In PubChem BioAssay (NCI):
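Following 48 hours of exposure in 96-well plates, responses at five concentrations were used to interpolate endpoints linearly. GI50 marks 50% less growth. Definition used: TGI = concentration required for complete inhibition of growth.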

Key:
Experiment in all cases: NCI-60 cell line screen, 48 h
MOLT-4 leukemia = tested on: MOLT-4 leukemia
HCC-2998 colon = tested on: HCC-2998 colon
SW-620 colon = tested on: SW-620 colon
SR leukemia = tested on: SR leukemia
SNB-19 CNS = tested on: SNB-19 CNS
SK-MEL-2 melanoma = tested on: SK-MEL-2 melanoma
IGROV1 ovarian = tested on: IGROV1 ovarian
PC-3 prostate = tested on: PC-3 prostate
T-47D breast = tested on: T-47D breast
HS 578T breast = tested on: HS 578T breast

| SMILES | TGI (MOLT-4 leukemia) [µM] | TGI (HCC-2998 colon) [µM] | TGI (SW-620 colon) [µM] | TGI (SR leukemia) [µM] | TGI (SNB-19 CNS) [µM] | TGI (SK-MEL-2 melanoma) [µM] | TGI (IGROV1 ovarian) [µM] | TGI (PC-3 prostate) [µM] | TGI (T-47D breast) [µM] | TGI (HS 578T breast) [µM] | GI50 (MOLT-4 leukemia) [µM] | GI50 (HCC-2998 colon) [µM] | GI50 (HS 578T breast) [µM] | GI50 (SW-620 colon) [µM] | GI50 (SR leukemia) [µM] | GI50 (PC-3 prostate) [µM] | GI50 (SNB-19 CNS) [µM] | GI50 (SK-MEL-2 melanoma) [µM] | GI50 (IGROV1 ovarian) [µM] |
| --- | --- | --- | --- | --- | --- | --- | --- | --- | --- | --- | --- | --- | --- | --- | --- | --- | --- | --- | --- |
| CN(CCN(C)C(=O)CCn1ccc(=O)[nH]c1=O)C(=O)CCn1ccc(=O)[nH]c1=O | > 100 | > 100 | > 100 | > 100 | > 100 | > 100 | > 100 | – | – | – | – | – | – | – | – | – | – | – | – |
| COc1cc(C2(C)SCCCS2)c(I)c(OC)c1OC | > 100 | > 100 | > 100 | > 100 | > 100 | > 100 | > 100 | – | – | – | – | – | – | – | – | – | – | – | – |
| CCOC(=O)N1C(=S)C(C(=O)OC)(C(=O)OC)N=C1C | > 100 | > 100 | > 100 | > 100 | > 100 | > 100 | > 100 | > 100 | > 100 | – | – | – | – | – | – | – | – | – | – |
| O=c1/c(=C/c2ccc(-c3ccc(Cl)cc3Cl)o2)sc2n1[C@@H](c1ccc3c(c1)OCO3)C=C(c1cc(F)c(Cl)cc1Cl)N=2 | > 100 | – | > 100 | – | 95.4 | 71.1 | > 100 | > 100 | > 100 | > 100 | – | – | – | – | – | – | – | – | – |
| CCC1CCC2c3c([nH]c4ccccc34)C3C(=O)N(c4ccc(OC)cc4)C(=O)C3C2C1 (stereo unspecified) | 32.5 | > 100 | 82.4 | 32.1 | 74.9 | – | > 100 | > 100 | 55.8 | 66.8 | – | – | – | – | – | – | – | – | – |
| CC(=O)Nc1ccc(/C=C(\NC(=O)c2ccccc2)C(=O)NNS(=O)(=O)c2ccc(C)cc2)cc1 | > 100 | > 100 | – | 37.8 | > 100 | > 100 | > 100 | – | – | – | – | – | – | – | – | – | – | – | – |
| COc1ccc(N2C(=O)/C(=C/c3ccc(N(CCC#N)CCC#N)cc3)N=C2c2ccccc2)c(OC)c1 | > 100 | > 100 | > 100 | 60.3 | > 100 | – | > 100 | – | 69.5 | > 100 | – | – | – | – | – | – | – | – | – |
| O=c1c(-c2ccc(O)cc2)coc2cc(O)cc(O)c12 | > 100 | > 100 | > 100 | > 100 | > 100 | – | > 100 | > 100 | > 100 | > 100 | – | – | – | – | – | – | – | – | – |
| CC1(C)Oc2ccc3c(=O)c4ccccc4oc3c2C1C(=O)O (stereo unspecified) | > 100 | > 100 | – | – | – | > 100 | > 100 | > 100 | > 100 | > 100 | – | – | – | – | – | – | – | – | – |
| c1ccc(-c2[nH]c(-c3ccccc3)c(-c3cnccn3)c2-c2cnccn2)cc1 | > 100 | > 100 | > 100 | > 100 | > 100 | > 100 | > 100 | – | – | – | – | – | – | – | – | – | – | – | – |
| CC(=O)[C@H]1CCC2[C@@H]3CC=C4C(O)C(OS(=O)(=O)O)CC[C@]4(C)C3CC[C@@]21C (stereo partly specified) | > 100 | > 100 | > 100 | – | > 100 | > 100 | > 100 | – | – | – | – | – | – | – | – | – | – | – | – |
| COC1=CC(=O)c2c(cc(COP(=O)(N(C)CCBr)N(C)CCBr)n2C)C1=O | > 100 | 1.77 | 7.58 | – | 14.7 | 4.87 | 19.2 | > 83.2 | 33 | 5.04 | – | – | – | – | – | – | – | – | – |
| CCOC(=O)c1c(-c2ccc(OC)c(O)c2)c(C#N)c(=S)n(C2OC(CO)C(O)C(O)C2O)c1-c1ccccc1 (stereo unspecified) | > 100 | > 100 | > 100 | > 100 | > 100 | – | > 100 | > 100 | – | > 100 | – | – | – | – | – | – | – | – | – |
| O=C(Nc1nc(C23CC4CC(CC(C4)C2)C3)cs1)c1cc2cc([N+](=O)[O-])ccc2oc1=O | > 100 | > 100 | > 100 | > 100 | > 100 | – | > 100 | > 100 | – | 67.9 | – | – | – | – | – | – | – | – | – |
| O=C(NCc1ccccc1)c1c(O)c2ccccc2[nH]c1=O | > 100 | > 100 | > 100 | > 100 | > 100 | – | > 100 | > 100 | – | > 100 | – | – | – | – | – | – | – | – | – |
| Cc1ccc2cnc(N)c(C#Cc3cncc(C(=O)Nc4ccc(CN5CCN(C)CC5)c(C(F)(F)F)c4)c3)c2c1 | 0.936 | 1.3 | 0.54 | 1.3 | 1.46 | 1.63 | 0.869 | 1.43 | – | 1.39 | 0.205 | 0.582 | 0.274 | 0.131 | 0.162 | 0.679 | 0.786 | 0.66 | 0.231 |
| CC(=O)O[C@H]1C(=O)[C@@]2(C)C(C(OC(=O)c3ccccc3)[C@]3(O)CC(OC(=O)C(O)C(NC(=O)c4ccccc4)c4ccc(C)cc4)C(C)=C1C3(C)C)[C@]1(OC(C)=O)CO[C@@H]1C[C@@H]2O (stereo partly specified) | 5.82 | – | 0.0256 | – | 0.523 | 0.121 | 19 | – | – | – | – | – | – | – | – | – | – | – | – |
| CCOC(=O)c1cn(C)nc1N/C(C)=C\C(=O)c1ccccc1 | > 100 | > 100 | > 100 | > 100 | > 100 | – | > 100 | > 100 | > 100 | > 100 | – | – | – | – | – | – | – | – | – |
| C=C1CC(OC)(C(O)C(=O)N[C@H]2OCO[C@H]3C2O[C@H](C[C@H](O)COC)C(C)(C)C3OC)O[C@H](C)[C@@H]1C (stereo partly specified) | > 0.00772 | > 0.00772 | – | – | > 0.00772 | – | > 0.00772 | – | – | – | – | – | – | – | – | – | – | – | – |
| C=C1C(=O)O[C@H]2C/C(C=O)=C\[C@H]3O[C@H]3/C(COC(=O)C(C)C)=C/CC12 (stereo partly specified) | 10.6 | 27.2 | 6.87 | 7.95 | 35.4 | – | 18.5 | 8.59 | 7 | 22 | – | – | – | – | – | – | – | – | – |
| O=c1oc2ccccc2c(O)c1Cc1cccc(Cc2c(O)c3ccccc3oc2=O)c1 | > 100 | > 100 | > 100 | – | > 100 | > 100 | > 100 | > 100 | > 100 | > 100 | – | – | – | – | – | – | – | – | – |
| C=C(C(=O)OC)[C@H]1CC/C(C)=C/CC/C(C)=C/CC[C@@]2(C)O[C@@H]2C1 | 35.5 | 30.8 | 37.2 | – | > 100 | 29.9 | 31.5 | 46.4 | 44.7 | – | – | – | – | – | – | – | – | – | – |
| CCOC(=O)C1=C(C)N(c2ccc(C)cc2)C2(O)C=CC(=O)C3=C(O)c4ccccc4C(=O)C312 (stereo unspecified) | 1.26 | 59.4 | 61.1 | 2.6 | 80.2 | 94.1 | 45.5 | > 100 | – | – | – | – | – | – | – | – | – | – | – |
